Holding throughout (experiment): growth of human tumour cells (NCI), 48 h
Assay [1] has as its system A549 NSCLC.
The subject of assay [2] is HOP-62 NSCLC.
Assay [3] concerns MOLT-4 leukemia.
Assay [4] deals with NCI-H522 lung.
Assay [5] has as its system SF-295 CNS.
For assay [6], the system named is SK-MEL-2 melanoma.
Assay [7] has as its system SW-620 colon.
Assay [8] relates to T-47D breast.

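Values below derive from 48-hour exposures of cells grown in 96-well plates, with endpoints linearly interpolated between the two concentrations bracketing the appropriate inhibition level. GI50: concentration for 50% inhibition of growth. TGI marks complete inhibition of growth.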 Where only a bound is given, the exact number is not on record here.

As for `COc1ncnc(S(=O)(=O)c2ccc(N=C3C(=O)N(CN4CCN(c5cc6c(cc5F)c(=O)c(C(=O)O)cn6C5CC5)CC4)c4ccc(Cl)cc43)cc2)c1OC`, the GI50 in assay [1] was over 50 µM; in assay [2], 31.6 µM; in assay [3] it was 24.9 µM; in assay [4], over 50 µM; in assay [5], over 50 µM; in assay [6] it was over 50 µM. In addition, the GI50 is over 50 µM in assay [7] and over 50000 nM in assay [8]. In addition, the TGI in assay [1], in assay [2], in assay [3], in assay [4], in assay [5] and in assay [6] was over 50 µM in each case. The TGI in assay [7] and in assay [8] was over 50 µM each time.
As for `COc1cc(C)c(C2NC(=O)c3ccccc3N2)cc1C` (stereo unspecified), the TGI in assay [1] was over 100 µM; in assay [2], over 97.1 µM; in assay [3] it was 35.8 µM; in assay [4], 0.713 µM; in assay [5], 22.4 µM; in assay [6] it was 0.924 µM. Also, the TGI in assay [7] and in assay [8] was over 100 µM in each case.
On to `Cc1c2c(c(C)c3c4c(oc13)CCCC4)C=NCC2`, for which the TGI in assay [1] stood at 32.4 µM; in assay [2] it was 60.6 µM; in assay [3] it was 45.1 µM; in assay [4], 31.3 µM; in assay [5] it was 31.7 µM; in assay [6], 31.2 µM. The figures for the TGI in assay [7] and in assay [8] were 59.3 µM and over 100 µM, respectively.
With `O=C(c1ccccc1)c1c(NCC(O)CN2CCOCC2)n(Cc2ccccc2)c(=O)n(Cc2ccccc2)c1=O` (stereo unspecified), the GI50 in assay [1] was 35.7 µM; in assay [2] it was 96.9 µM; in assay [3] it was 32.4 µM; in assay [4], 38.9 µM; in assay [5], 36.2 µM; in assay [6] it was over 66.4 µM. Besides, the GI50 in assay [7] is 52.9 µM; in assay [8], 1690 nM. The TGI was over 100 µM in assay [1]; over 100 µM in assay [2]; over 95.5 µM in assay [3]; over 100 µM in assay [4]; over 100 µM in assay [5]; over 100 µM in assay [6]. In addition, the values for the TGI in assay [7] and in assay [8] were over 100 µM and over 43.3 µM, respectively.
As for `Cc1cc(O)c(C2=NN(c3ccc(S(N)(=O)=O)cc3)C(c3ccc(Cl)cc3)C2)c(C)c1Cl` (stereo unspecified), the GI50 was 5.91 µM in assay [1]; 10.4 µM in assay [2]; 1.94 µM in assay [3]; 6.24 µM in assay [4]; 16 µM in assay [5]; 11.9 µM in assay [6]. The GI50 in assay [7] was 3.72 µM; in assay [8] it was 2930 nM. For the same molecule, the TGI in assay [1] was found to be 22.5 µM; in assay [2] it was 23.3 µM; in assay [3], 7.25 µM; in assay [4], 21.6 µM; in assay [5], 31.6 µM; in assay [6], 27.6 µM. The TGI was 15.2 µM in assay [7] and 14.9 µM in assay [8].
For `Cn1cc(C2=C(c3cn(C)c4ccc(Cl)cc34)C(=O)NC2=O)c2ccccc21`, the GI50 in assay [1] is 2.12 µM; in assay [2], 3.79 µM; in assay [3] it was 2.17 µM; in assay [4], 1.34 µM; in assay [5], 1.6 µM; in assay [6], 1.68 µM. Also, the GI50 was 1.38 µM in assay [7] and 3840 nM in assay [8]. In addition, the TGI in assay [1] came out at 16.8 µM; in assay [2], 17.8 µM; in assay [3], 14.9 µM; in assay [4] it was 10.5 µM; in assay [5] it was 8.02 µM; in assay [6], 6.65 µM. In addition, the values for the TGI in assay [7] and in assay [8] were over 25 µM and 13 µM, respectively.
In the case of `C1CC2CN(CCCN3CCOCC3)C(C1)O2` (stereo unspecified), the TGI in assay [1], in assay [2], in assay [3], in assay [4], in assay [5] and in assay [6] was over 100 µM each time. The TGI in assay [7] and in assay [8] was over 100 µM throughout.
With `Cc1ccc(N=Nc2c(O)ccc3ccccc23)cc1`, the TGI in assay [1], in assay [2], in assay [3], in assay [4], in assay [5] and in assay [6] was over 100 µM in each case. Moreover, the TGI in assay [7] and in assay [8] was over 100 µM each time.
As to `c1cncc(CNCc2cccnc2)c1`, the TGI in assay [1], in assay [2], in assay [3], in assay [4], in assay [5] and in assay [6] was over 100 µM throughout. Also, the TGI in assay [7] and in assay [8] was over 100 µM each time.
As to `Cc1c2cc(Cl)c3ccccc3c2c[n+]2ccccc12`, the GI50 in assay [1] is 8.54 µM; in assay [2], 2.24 µM; in assay [3], 4.5 µM; in assay [4], 2.13 µM; in assay [5], 0.813 µM; in assay [6], 3.58 µM. For the same molecule, the figures for the GI50 in assay [7] and in assay [8] were 3.74 µM and 544 nM, respectively. In addition, the TGI was over 100 µM in assay [1]; 16.1 µM in assay [2]; 34.9 µM in assay [3]; 12.4 µM in assay [4]; 6.58 µM in assay [5]; 11.5 µM in assay [6]. Moreover, the values for the TGI in assay [7] and in assay [8] were 24.2 µM and 2.53 µM, respectively.
Turning to `COC(=O)COc1ccc(/C=C2/N=C(c3ccccc3)N(c3c(C)n(C)n(-c4ccccc4)c3=O)C2=O)cc1`, the GI50 was over 100 µM in assay [1]; 31.7 µM in assay [2]; 23 µM in assay [3]; 17.8 µM in assay [4]; 33.5 µM in assay [5]; 19.1 µM in assay [6]. The GI50 in assay [7] was 22 µM; in assay [8] it was 21300 nM. In addition, the TGI in assay [1] is over 100 µM; in assay [2], 97.7 µM; in assay [3] it was 59.8 µM; in assay [4] it was 41 µM; in assay [5], over 100 µM; in assay [6], 38 µM. The results for the TGI in assay [7] and in assay [8] were 50.6 µM and 61.2 µM, respectively.

The values are drawn from PubChem BioAssay (NCI).
